Results published in the supplement of paper PMC10307832.

Compound: CCc1cnn2c(NCc3ccc[n+]([O-])c3)cc(N3CCCC[C@H]3CCO)nc12 [Dinaciclib]
Assay: relative viability (nuclei count vs DMSO), 5 days (fraction); higher = more cells survive
How it was run: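 On vehicle-anchored 1536-well plates, lung cancer cell lines held overnight at 37 °C were pinned with five library-drug doses (not always all listed) spaced by √10. With no medium change over 5 days, they were then fixed, permeabilised and Hoechst-stained in one step and imaged at 4×. MetaXpress counted nuclei, and viability is the median across plates of treated-well over vehicle-well nuclei. Acceptance needed control CV below 25% and at least one doubling.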

Row | Cell Line | relative viability (0.009487 µM) | relative viability (0.03 µM) | relative viability (0.09487 µM) | relative viability (0.3 µM)
1 | 201T | 1.09 | 0.632 | 0.339 | 0.236
2 | A-427 | 0.828 | 0.144 | 0.084 | 0.0857
3 | ABC-1 | 0.757 | 0.237 | 0.165 | 0.116
4 | BEN | 1.06 | 0.812 | 0.214 | 0.257
5 | CAL-12T | 0.479 | 0.163 | 0.121 | 0.137
6 | COR-L23 | 0.891 | 0.162 | 0.0991 | 0.103
7 | COR-L 105 | 0.599 | 0.285 | 0.264 | 0.29
8 | ChaGo-K-1 | 0.95 | 0.246 | 0.203 | 0.146
9 | EKVX | 0.996 | 0.601 | 0.184 | 0.13
10 | EMC-BAC-2 | 0.951 | 0.413 | 0.224 | 0.197
11 | EPLC-272H | 0.855 | 0.0817 | 0.0396 | 0.0347
12 | H3255 | 0.928 | 0.56 | 0.219 | 0.196
13 | HARA | 0.912 | 0.18 | 0.088 | 0.0759
14 | HCC-15 | 0.772 | 0.154 | 0.114 | 0.114
15 | HCC-44 | 0.973 | 0.443 | 0.176 | 0.147
16 | HCC-78 | 0.914 | 0.326 | 0.175 | 0.199
17 | HCC-366 | 1.01 | 0.107 | 0.0385 | 0.0363
18 | HCC-827 | 1.1 | 0.85 | 0.188 | 0.168
19 | HOP-62 | 0.957 | 0.474 | 0.0898 | 0.0943
20 | IA-LM | 0.804 | 0.286 | 0.0334 | 0.0226
21 | LC-2-ad | 0.917 | 0.18 | 0.145 | 0.129
22 | LCLC-97TM1 | 0.506 | 0.134 | 0.0776 | 0.0861
23 | LCLC-103H | 1.03 | 0.855 | 0.204 | 0.146
24 | LK-2 | 0.888 | 0.193 | 0.177 | 0.151
25 | LOU-NH91 | 0.958 | 0.311 | 0.261 | 0.269

Row | Cell Line | relative viability (0.009487 µM) | relative viability (0.03 µM) | relative viability (0.09487 µM) | relative viability (0.3 µM)
26 | LU99A | 0.838 | 0.199 | 0.139 | 0.133
27 | LXF-289 | 1.07 | 0.924 | 0.134 | 0.101
28 | NCI-H23 | 0.633 | 0.176 | 0.109 | 0.126
29 | NCI-H322M | 0.721 | 0.333 | 0.289 | 0.258
30 | NCI-H358 | 0.785 | 0.153 | 0.104 | 0.131
31 | NCI-H441 | 1.13 | 0.162 | 0.146 | 0.158
32 | NCI-H460 | 0.885 | 0.0593 | 0.0265 | 0.0308
33 | NCI-H520 | 0.915 | 0.276 | 0.155 | 0.18
34 | NCI-H596 | 0.977 | 0.846 | 0.261 | 0.18
35 | NCI-H647 | 0.713 | 0.0972 | 0.0714 | 0.0765
36 | NCI-H650 | 0.874 | 0.21 | 0.159 | 0.137
37 | NCI-H661 | 1.03 | 0.246 | 0.201 | 0.19
38 | NCI-H727 | 0.975 | 0.411 | 0.222 | 0.245
39 | NCI-H838 | 0.88 | 0.173 | 0.128 | 0.137
40 | NCI-H1355 | 1.08 | 0.681 | 0.214 | 0.151
41 | NCI-H1395 | 0.637 | 0.308 | 0.263 | 0.272
42 | NCI-H1437 | 0.894 | 0.227 | 0.17 | 0.154
43 | NCI-H1563 | 1.25 | 0.552 | 0.314 | 0.286
44 | NCI-H1650 | 0.943 | 0.174 | 0.134 | 0.148
45 | NCI-H1651 | 0.969 | 0.764 | 0.186 | 0.0892
46 | NCI-H1666 | 0.896 | 0.485 | 0.376 | 0.345
47 | NCI-H1703 | 1.16 | 0.531 | 0.104 | 0.118
48 | NCI-H1734 | 0.824 | 0.145 | 0.133 | 0.14
49 | NCI-H1755 | 1.01 | 0.894 | 0.257 | 0.266
50 | NCI-H1792 | 1.01 | 0.358 | 0.117 | 0.0792

Row | Cell Line | relative viability (0.009487 µM) | relative viability (0.03 µM) | relative viability (0.09487 µM) | relative viability (0.3 µM)
51 | NCI-H1793 | 0.78 | 0.227 | 0.152 | 0.138
52 | NCI-H1915 | 0.69 | 0.202 | 0.159 | 0.12
53 | NCI-H1944 | 0.971 | 0.166 | 0.141 | 0.149
54 | NCI-H1975 | 0.969 | 0.442 | 0.164 | 0.144
55 | NCI-H1993 | 0.861 | 0.631 | 0.483 | 0.485
56 | NCI-H2009 | 0.937 | 0.179 | 0.109 | 0.1
57 | NCI-H2023 | 0.706 | 0.0772 | 0.0615 | 0.0696
58 | NCI-H2085 | 1.07 | 0.685 | 0.27 | 0.268
59 | NCI-H2087 | 0.954 | 0.14 | 0.111 | 0.122
60 | NCI-H2126 | 1.03 | 0.563 | 0.247 | 0.207
61 | NCI-H2170 | 0.942 | 0.24 | 0.171 | 0.156
62 | NCI-H2228 | 1.21 | 0.434 | 0.123 | 0.161
63 | NCI-H2342 | 1.11 | 0.696 | 0.368 | 0.301
64 | NCI-H2347 | 1.01 | 0.538 | 0.257 | 0.214
65 | NCI-H2405 | 0.947 | 0.405 | 0.246 | 0.23
66 | NCI-H3122 | 0.979 | 0.182 | 0.115 | 0.102
67 | PC-3 [JPC-3] | 1.05 | 0.92 | 0.4 | 0.266
68 | PC-14 | 0.766 | 0.163 | 0.0662 | 0.0529
69 | RERF-LC-KJ | 1.01 | 0.29 | 0.176 | 0.156
70 | SK-LU-1 | 1.09 | 0.227 | 0.192 | 0.196
71 | SK-MES-1 | 1.04 | 0.295 | 0.163 | 0.15
72 | SW 900 | 0.809 | 0.286 | 0.119 | 0.133
73 | SW 1573 | 0.83 | 0.133 | 0.0862 | 0.081
74 | UMC-11 | 0.405 | 0.204 | 0.179 | 0.196
